# According to patent publication US8148395B2, “Azolopyridin-3-one derivatives as inhibitors of lipases and phospholipases” (Sanofi-Aventis, priority 2006, dated 2012):
# Target: T1, endothelial lipase (EL) (Homo sapiens, UniProt Q9Y5X9)
# T1 construct: EL is released as secretory protein in high concentration into cell culture medium (conditioned medium) by recombinant cell lines (CHO, HEK293); made in house; host or cells: recombinant cell lines (CHO, HEK293); concentrated conditioned medium used as enzyme solution
# T1 sequence (Q9Y5X9 21-500): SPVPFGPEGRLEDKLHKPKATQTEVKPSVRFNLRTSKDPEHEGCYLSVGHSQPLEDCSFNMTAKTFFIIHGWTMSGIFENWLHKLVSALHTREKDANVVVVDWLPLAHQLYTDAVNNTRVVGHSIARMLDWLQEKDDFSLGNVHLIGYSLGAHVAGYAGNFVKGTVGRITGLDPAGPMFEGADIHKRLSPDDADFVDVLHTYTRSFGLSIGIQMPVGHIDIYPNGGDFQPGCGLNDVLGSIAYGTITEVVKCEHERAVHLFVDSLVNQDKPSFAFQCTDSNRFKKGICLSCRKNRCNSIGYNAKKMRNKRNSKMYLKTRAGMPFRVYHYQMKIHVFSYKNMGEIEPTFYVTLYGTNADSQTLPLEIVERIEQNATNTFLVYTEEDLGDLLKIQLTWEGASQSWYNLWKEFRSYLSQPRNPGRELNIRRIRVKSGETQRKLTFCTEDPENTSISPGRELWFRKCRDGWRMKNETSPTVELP
# Assay: EL inhibition assay (EL activity assay, fluorescent Bodipy phospholipid substrate)
# Format: biochemical
# Settings: EL from conditioned medium of recombinant cell lines (CHO, HEK293); 37° C., 90 minutes; HPTLC fluorescence read-out
# Excerpt: EL is released as secretory protein in high concentration into cell culture medium (conditioned medium) by recombinant cell lines (CHO, HEK293). This was employed as enzyme solution after concentration.
# The phospholipase-specific substrate 1,2-bis(4,4-difluoro-5,7-dimethyl-4-bora-3a,4a-diaza-s-indacene-3-undecanoyl)-sn-glycero-3-phosphocholine, (manufacturer Molecular Probes) was used to characterize the enzymatic activity of endothelial lipase and the effect of inhibitors. Hydrolysis of the A1 ester linkage of this phospholipid by the enzyme liberates a fatty acid labeled with the fluorescent dye Bodipy which can be detected after separation by thin-layer chromatography on an HPTLC plate (silica gel 60, Merck) or directly in the reaction vessel by measuring the fluorescence.
# The substrate solution was prepared by 100 μg of 1,2-bis(4,4-difluoro-5,7-dimethyl-4-bora-3a,4a-diaza-s-indacene-3-undecanoyl)-sn-glycero-3-phospho-choline (manufacturer Molecular Probes) being dissolved in 100 μl of DMSO and taken up with 2.4 mg of tripalmitin (Sigma) in 393 μl of chloroform which contained 20 mg/ml DOP-choline (1,2-dioleoyl-sn-glycero-3-phosphocholine). 39.3 μl of this lipid mixture were transferred into a fresh reaction vessel and the solvent was evaporated. The lipid mixture was dissolved in 4 ml of 200 mM TRIS-HCl, 150 mM sodium chloride, pH=7.4, by sonication twice. The subsequent enzymic reaction took place at 37° C. for 90 minutes. For this purpose, 20 μl of the substrate solution were incubated with 2 μl of inhibitor of appropriate concentration (dissolved in 10% DMSO, using 10% DMSO solution for control) and 2 μl of enzyme solution (conditioned medium). Then 4 μl of the assay mixture were loaded onto an HPTLC plate (silica gel 60, Merck), and the liberated fluorescent dye was separated for detection with an eluent (diethyl ether:petroleum benzene:acetic acid [78:22:1]). After evaporation of the eluent, the plate was read in a fluorescence scanner. An increased liberation of the fluorescent dye in the uninhibited reaction was to be observed as a measure of the enzymic activity.
# The enzymatic activity was reduced as a function of the inhibitor concentration used. The inhibitor concentration at which a half-maximum enzymatic activity is observed is called IC50.
row,Structure (SMILES),IC50 [µM]
1,"Cc1ccccc1CNC(=O)n1c(=O)c2c(C)cc(Cl)nc2n1C [Example 2, 6-Chloro-1,4-dimethyl-3-oxo-1,3-dihydro-pyrazolo[3,4-b]pyridine-2-carboxylic acid 2-methylbenzylamide]",0.02
2,"Cc1cc(Cl)nc2c1c(=O)n(C(=O)NCCc1cccs1)n2C [Example 4, 6-Chloro-1,4-dimethyl-3-oxo-1,3-dihydropyrazolo[3,4-b]pyridine-2-carboxylic acid (2-thiophen-2-ylethyl)amide]",0.019
3,"CCCCCCNC(=O)n1oc2ncccc2c1=O [Example 6, 3-Oxo-3H-isoxazolo[5,4-b]pyridine-2-carboxylic acid hexylamide]",0.043
4,"Cc1cc(Cl)nc2[nH]n(C(=O)N[C@@H]3CCc4ccccc43)c(=O)c12 [Example 8, 6-Chloro-4-methyl-3-oxo-1,3-dihydropyrazolo[3,4-b]pyridine-2-carboxylic acid (R)-indan-1-ylamide]",0.091
5,"Cc1cc(Cl)nc2[nH]n(C(=O)NC3CCCc4ccccc43)c(=O)c12 (stereo not shown) [Example 9, 6-Chloro-4-methyl-3-oxo-1,3-dihydropyrazolo[3,4-b]pyridine-2-carboxylic acid (1,2,3,4-tetrahydronaphthalen-1-yl)amide]",1.21
6,"CCCCCCNC(=O)n1c(=O)c2c(C)cc(Cl)nc2n1CCCC [Example 10, 1-Butyl-6-chloro-4-methyl-3-oxo-1,3-dihydropyrazolo[3,4-b]pyridine-2-carboxylic acid hexylamide]",0.001
7,"CCCCn1c2nc(Cl)cc(C)c2c(=O)n1C(=O)NCCc1cccs1 [Example 11, 1-Butyl-6-chloro-4-methyl-3-oxo-1,3-dihydropyrazolo[3,4-b]pyridine-2-carboxylic acid (2-thiophen-2-ylethyl)amide]",1.23
8,"Cc1cc(Cl)nc2c1c(=O)n(C(=O)NC1CCCc3ccccc31)n2C (stereo not shown) [Example 12, 6-Chloro-1,4-dimethyl-3-oxo-1,3-dihydropyrazolo[3,4-b]pyridine-2-carboxylic acid (1,2,3,4-tetrahydronaphthalen-1-yl)amide]",0.029
9,"Cc1cc(Cl)nc2c1c(=O)n(C(=O)N[C@H]1CCc3ccccc31)n2C [Example 13, 6-Chloro-1,4-dimethyl-3-oxo-1,3-dihydropyrazolo[3,4-b]pyridine-2-carboxylic acid (S)-indan-1-ylamide]",0.204
10,"Cc1cc(Cl)nc2c1c(=O)n(C(=O)N[C@@H]1CCc3ccccc31)n2C [Example 14, 6-Chloro-1,4-dimethyl-3-oxo-1,3-dihydropyrazolo[3,4-b]pyridine-2-carboxylic acid (R)-indan-1-ylamide]",0.008
11,"CCCCCCNC(=O)n1c(=O)c2c(C)cc(Cl)nc2n1Cc1ccccc1 [Example 15, 1-Benzyl-6-chloro-4-methyl-3-oxo-1,3-dihydropyrazolo[3,4-b]pyridine-2-carboxylic acid hexylamide]",0.057
12,"CCCCCCNC(=O)n1oc2nc(C(F)(F)F)ccc2c1=O [Example 16, 3-Oxo-6-trifluoromethyl-3H-isoxazolo[5,4-b]pyridine-2-carboxylic acid hexylamide]",0.01
13,"CCCCCCNC(=O)n1oc2nc(C)ccc2c1=O [Example 17, 6-Methyl-3-oxo-3H-isoxazolo[5,4-b]pyridine-2-carboxylic acid hexylamide]",0.011
